Results published in patent publication US20210221848A1, “POLYMYXIN DERIVATIVES AND THEIR USE IN COMBINATION THERAPY TOGETHER WITH DIFFERENT ANTIBIOTICS” (priority 2014, published 2021).
Where two headings read alike, the source gives them in different places.

Experiments:
[1] = tested on: Acinetobacter baumannii NCTC 13301; conditions: mouse lungs, A. baumannii NCTC 13301, SC at 2, 6 and 10 h post-infection, 16 h infection model
Description: On Day 0, animals were infected with 0.04 mL inoculum by intranasal instillation into mouse nostrils and were kept in an upright position on a string rack for ˜10 min post-infection. […] The vehicle control group (7 mice) was treated with 0.9% saline for injection at 2, 6 and 10 h post-infection.
Sixteen hours after infection, the mice were euthanized humanely. The lungs of each animal were harvested, homogenized and quantitatively cultured onto CLED agar for CFU determination. Decrease of the total CFU compared to control counts at 16 h post-infection was determined for each dose group.

[2] = tested on: P. aeruginosa ATCC 27853; assay: In vivo efficacy, thigh infection in mice, IV dosing, 9 h model; set-up: species or system Pseudomonas aeruginosa; conditions: mouse thigh
Description: Compounds were administered in solution by intravenous (IV) bolus injection into the lateral tail vein. […] At 1 hour post infection, 4 animals were humanely euthanized using pentabarbitone overdose to provide a pre-treatment control group. At 9 hours post infection, the clinical condition of all animals was assessed prior to them being humanely euthanized by pentabarbitone overdose. Animal weight was determined before both thighs were removed and weighed individually. Individual thigh tissue samples were homogenized in ice cold sterile phosphate buffered saline. Thigh homogenates were then quantitatively cultured onto cystine lactose electrolyte deficient (CLED) agar and incubated at 37° C. for 24 hours before colonies were counted.

[3] = tested on: K. pneumoniae
[4] = tested on: A. baumannii; assay: MIC in 1:1 (wt:wt) combination with Rifampicin; type: cell-based, Acinetobacter baumannii; conditions: 1:1 (wt:wt) with Rifampicin, total drug concentration
Description: The inoculum was prepared by making a direct suspension of isolated colonies (selected from an 18-24 hour Mueller-Hinton agar plate) adjusted to the 0.5 McFarland standard. […] The assays were performed in duplicate. […] In cases where the duplicate values varied by less than 2-fold, the lower of the two values is reported. If a variation of greater than 2-fold was observed, the assay was considered non-valid. Several of the compounds were subjected to multiple tests, and where this is the case, the MIC reflects the modal value obtained.
MIC values (microgram/mL) refer to the total drug concentration (i.e. test agent plus Rifampicin).

[5] = tested on: A. baumannii; assay: MIC in the presence of […] of rifampicin; type: cell-based, Acinetobacter baumannii; conditions: A. baumannii ATCC BAA-747, Table 5C
[6] = tested on: A. baumanii strains with elevated MICs to Polymyxin B; assay: MIC against strains with elevated MICs to Polymyxin B; type: cell-based, Acinetobacter baumannii
In short: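 Polymyxin B-resistant isolates were inoculated from 0.5 McFarland suspensions of 18-24 hour Mueller-Hinton agar colonies. Testing was done twice per compound, and results disagreeing by over 2-fold were discarded as non-valid. For compounds assayed several times, the modal MIC is given.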

[7] = tested on: E. coli; assay: MIC in the presence of a fixed concentration (2 μg/mL) of Rifampicin; type: cell-based, Escherichia coli; conditions: Rifampicin 2 μg/mL, Table 5C

Question: What does the source list for Polymyxin B [PMB, reference compound]?
Answer: Mean log10 CFU reduction vs. control ([1]; 2.6 mg/kg/dose free base): 0.79 log10 CFU; Mean log10 CFU reduction vs. control ([1]; 8.6 mg/kg/dose free base): 0.58 log10 CFU; Mean log10 CFU reduction vs. control ([1]; 17.2 mg/kg/dose free base): 0.54 log10 CFU; Mean log10 CFU reduction vs. control ([1]; 25.8 mg/kg/dose free base): 1.10 log10 CFU; Log reduction from vehicle (CFU/g) ([2]; dose 0.85 mg/kg drug base IV at 1, 3.5 and 6 h post-infection): 1.19 log10 CFU/g; Log reduction from vehicle (CFU/g) ([2]; dose 3.4 mg/kg drug base IV at 1, 3.5 and 6 h post-infection): 4.23 log10 CFU/g; MIC ([3]; K. pneumoniae ATCC 4352): 0.25 µg/mL; MIC, K. pneumoniae ATCC 4352 ([3]; K. pneumoniae ATCC 4352, absence of a second agent, Table 6B): 0.25 micrograms/mL; MIC ([3]; K. pneumoniae ATCC BAA-2146): 0.5 µg/mL; MIC, K. pneumoniae ATCC BAA-2146 ([3]; K. pneumoniae ATCC BAA-2146, absence of a second agent, Table 6B): 0.5 micrograms/mL; MIC, K. pneumoniae ATCC 4352 ([3]; strain ATCC 4352, compound alone): 0.25 micrograms/mL; MIC, K. pneumoniae ATCC BAA-2146 ([3]; strain ATCC BAA-2146, compound alone): 0.5 micrograms/mL; MIC in 1:1 combination with rifampicin, A. baumannii 053 ([4]; A. baumannii 053): ≤0.5 microgram/mL; MIC in 1:1 combination with rifampicin, A. baumannii 056 ([4]; A. baumannii 056): ≤0.5 microgram/mL; MIC in combination with Rifampicin, A. baumannii ATCC BAA-747 [5]: 0.03 micrograms/mL; MIC A. baumannii 053 ([6]; strain 053, elevated MIC to Polymyxin B, Table 6D): 128 micrograms/mL; MIC A. baumanii 053 ([6]; strain 053, elevated MIC to Polymyxin B, Table 6F): 128 micrograms/mL; MIC A. baumannii 056 ([6]; strain 056, elevated MIC to Polymyxin B, Table 6D): 32 micrograms/mL; MIC A. baumanii 056 ([6]; strain 056, elevated MIC to Polymyxin B, Table 6F): 32 micrograms/mL; MIC A. baumannii 068 ([6]; strain 068, elevated MIC to Polymyxin B, Table 6D): 8 micrograms/mL; MIC A. baumanii 068 ([6]; strain 068, elevated MIC to Polymyxin B, Table 6F): 8 micrograms/mL; MIC A. baumannii 070 ([6]; strain 070, elevated MIC to Polymyxin B, Table 6D): 32 micrograms/mL; MIC A. baumanii 070 ([6]; strain 070, elevated MIC to Polymyxin B, Table 6F): 32 micrograms/mL; MIC in combination with Rifampicin, E. coli ATCC 25922 ([7]; E. coli ATCC 25922): ≤0.015 micrograms/mL; MIC in combination with Rifampicin, E. coli NCTC 13441 ([7]; E. coli NCTC 13441): 0.03 micrograms/mL
